The subject of series [1] is RSV respiratory tract virus (A long strain). The experiment in a line: RSV long CPE assay (cytopathic effect assay), EC50. Format: cell-based. The conditions noted are these: human respiratory syncytial virus, HEp-2, 120 h; Hep2 cells infected with RSV A long strain, 5 days, CCK-8 readout. The procedure: (§1) Detect EC50 and CC50 values of anti RSV respiratory tract virus compounds through the cytopathic effect assay.
Virus strain: RSV respiratory tract virus (A long strain)
(§2) The cell plate was centrifugated (300 rpm) to make the cells adherent to the wall, placed into a 37° C., 5% CO2 incubator overnight.
(§3) 1) the compound in 100% DMSO underwent a semi logarithmic dilution, then was added to the cell plate with a Echo liquid handler. Ensure that the final concentration of DMSO was 1%;
(§4) 2) Cell-control hole: no compound and viruse were added; virus-control hole: no compound was added.
dilute RSV viruses to 100 TCID50/30 μL with medium cultured with 4° C. cells, and then add the diluted viruses to a cell plate (30 μL/hole) with Multidrop® automatic liquid distributor, and then placed into a 37° C., 5% CO2 culture incubator for 5 days.
1) after 5 days, observe the pathological change in each hole.
(§5) 2) add CCK-8 (Dojindo-CK04-20, 6 μL/hole) to 384 well plate with Multidrop® automatic liquid distributor;
(§6) 3) place the plate at a 37° C., 5% CO2 culture incubator for 3˜4 h, read the absorbance value with SPECTRA max 340PC_Molecular device at 450 nm and 630 nm;
Background: Damage to the host cells serves as the signal in cytopathic effect assays.

Series [2] in a line: RSV long CPE assay (cytopathic effect assay), CC50 toxicity in vitro. The note with it: human, Hep2 cells, CCK-8 readout, top concentration 100 μM. It counts as cell-based. The procedure:
as §1, §2, §3, §4, §5, §6

The structures appear in SMILES notation.

The term EC50 denotes the midpoint of the concentration-response curve. High values mean a need for much substance, low ones an effect from little substance. The term CC50 denotes the concentration giving 50% cytotoxicity. Lower therefore signals harm at low concentration.

For `CCOC(=O)N1CC2(C1)C(=O)N(Cc1nc3c(n1CCCCF)CCCC3)c1ccccc12` [Embodiment 73], the EC50 in series [1] is less than 100 nM. In series [2], this molecule yielded a CC50 at 5 days of more than 100000 nM.

In turn, `O=C(C1CC1)N1CC2(C1)C(=O)N(Cc1nc3c(n1CCCC(F)(F)F)CCCC3)c1ccccc12` [Embodiment 93, 1-(Cyclopropanecarbonyl)-1′-((1-(4,4,4-trifluorobutyl)-4,5,6,7-tetrahydro-1H-benzo[d]imidazol-2-yl)methyl)spiro[azetidine-3,3′-indoline]-2′-one] showed a concentration giving a half-maximal response (EC50) in series [1] of less than 100 nM. In series [2], this molecule registered a CC50 at 5 days of more than 100000 nM. In the same order, the values of `CCC(F)(F)Cn1c(CN2C(=O)C3(CN(C(=O)OC(C)C)C3)c3ccccc32)nc2c1CCCC2` [Embodiment 67, Isopropyl 1′-((1-(2,2-difluorobutyl)-4,5,6,7-tetrahydro-1H-benzo[d]imidazol-2-yl)methyl)-2′-oxospiro[azetidine-3,3′-indoline]-1-carboxylate] are 100 to 1000 nM and more than 100000 nM.

`CC(C)OC(=O)N1CC2(C1)C(=O)N(Cc1nc3c(n1CC(F)(F)C(C)C)CCCC3)c1ccccc12` [Embodiment 69, Isopropyl 1′-((1-(2,2-difluoro-3-methylbutyl)-4,5,6,7-tetrahydro-1H-benzo[d]imidazol-2-yl)methyl)-2′-oxospiro[azetidine-3,3′-indoline]-1-carboxylate]: in series [1], the concentration giving a half-maximal response (EC50) was less than 100 nM. This molecule gave a CC50 at 5 days in series [2] of more than 100000 nM. For `CC(C)=C(F)Cn1c(CN2C(=O)C3(CN(C(=O)OC(C)C)C3)c3ccccc32)nc2c1CCCC2` [Embodiment 71, Isopropyl 1′-((1-(2-fluoro-3-methylbut-2-en-1-yl)-4,5,6,7-tetrahydro-1H-benzo[d]imidazol-2-yl)methyl)-2′-oxospiro[azetidine-3,3′-indoline]-1-carboxylate] the same measures were 100 to 1000 nM and more than 100000 nM. In series [1], `CC(C)OC(=O)N1CC2(C1)C(=O)N(Cc1nc3c(n1CCCCO)CCC3)c1ccccc12` [Embodiment 103, Isopropyl 1′-((1-(4-hydroxybutyl)-1,4,5,6-tetrahydrocyclopenta[d]imidazol-2-yl)methyl)-2′-oxospiro[azetidine-3,3′-indoline]-1-carboxylate] returned an EC50 of less than 100 nM. The molecule further had a CC50 at 5 days in series [2] of more than 100000 nM. In the same order, the values of `CS(=O)(=O)N1CC2(C1)C(=O)N(Cc1nc3c(n1CCCC(F)(F)F)CCCC3)c1ccccc12` [Embodiment 97, 1-(Methylsulfonyl)-1′-((1-(4,4,4-trifluorobutyl)-4,5,6,7-tetrahydro-1H-benzo[d]imidazol-2-yl)methyl)spiro[azetidine-3,3′-indoline]-2′-one] are less than 100 nM and more than 100000 nM. `CCOC(=O)N1CC2(C1)C(=O)N(Cc1nc3c(n1CCCC(F)(F)F)CCC3)c1ccccc12` [Embodiment 104, Ethyl 2′-oxo-1′-((1-(4,4,4-trifluorobutyl)-1,4,5,6-tetrahydrocyclopenta[d]imidazol-2-yl)methyl)spiro[azetidine-3,3′-indoline]-1-carboxylate] gave an EC50 in series [1] of less than 100 nM. This molecule gave a CC50 at 5 days in series [2] of more than 100000 nM. In the same order, the values of `CCOC(=O)N1CC2(C1)C(=O)N(Cc1nc3c(n1CCCC(F)(F)F)CCCC3C)c1ccccc12` (stereo not drawn) [Embodiment 110, Ethyl 1′-((4-methyl-1-(4,4,4-trifluorobutyl)-4,5,6,7-tetrahydro-1H-benzo[d]imidazol-2-yl)methyl)-2′-oxospiro[azetidine-3,3′-indoline]-1-carboxylate] are 100 to 1000 nM and more than 100000 nM.

As for `CC(C)OC(=O)N1CC2(C1)C(=O)N(Cc1nc3c(n1CCCC(F)(F)F)CCCC3)c1cc(F)ccc12` [Embodiment 82, Isopropyl 6′-fluoro-2′-oxo-1′-((1-(4,4,4-trifluorobutyl)-4,5,6,7-tetrahydro-1H-benzo[d]imidazol-2-yl)methyl)spiro[azetidine-3,3′-indoline]-1-carboxylate], in series [1], the EC50 is less than 100 nM. Besides, the CC50 at 5 days in series [2] is more than 100000 nM.

`CC(C)OC(=O)N1CC2(C1)C(=O)N(Cc1nc3c(n1CC(F)(F)CCF)CCCC3)c1ccccc12` [Embodiment 66, Isopropyl 2′-oxo-1′-((1-(2,2,4-trifluorobutyl)-4,5,6,7-tetrahydro-1H-benzo[d]imidazol-2-yl)methyl)spiro[azetidine-3,3′-indoline]-1-carboxylate] had an EC50 in series [1] of less than 100 nM. In series [2], the CC50 at 5 days is more than 100000 nM. In the same order, the values of `CS(=O)(=O)N1CC2(C1)C(=O)N(Cc1nc3c(n1CCCC(F)(F)F)CCC3)c1ccccc12` [Embodiment 106, 1-(Methylsulfonyl)-1′-((1-(4,4,4-trifluorobutyl)-1,4,5,6-tetrahydrocyclopenta[d]imidazol-2-yl)methyl)spiro[azetidine-3,3′-indoline]-2′-one] are less than 100 nM and more than 100000 nM. For `CC(C)OC(=O)N1CC2(C1)C(=O)N(Cc1nc3c(n1/C=C(\F)C(C)C)CCCC3)c1ccccc12` [Embodiment 70, Isopropyl (Z)-1′-((1-(2-fluoro-3-methylbut-1-en-1-yl)-4,5,6,7-tetrahydro-1H-benzo[d]imidazol-2-yl)methyl)-2′-oxospiro[azetidine-3,3′-indoline]-1-carboxylate] the same measures were less than 100 nM and more than 100000 nM.

`CC(=O)N1CC2(C1)C(=O)N(Cc1nc3c(n1CCCC(F)(F)F)CCCC3)c1ccccc12` [Embodiment 92, 1-Acetyl-1′-((1-(4,4,4-trifluorobutyl)-4,5,6,7-tetrahydro-1H-benzo[d]imidazol-2-yl)methyl)spiro[azetidine-3,3′-indoline]-2′-one]: the EC50 in series [1] was less than 100 nM. Also, the CC50 at 5 days in series [2] was more than 100000 nM.

In turn, `CC(C)OC(=O)N1CC2(C1)C(=O)N(Cc1nc3c(n1CCCC(F)(F)F)CCCC3)c1ccc(Cl)cc12` [Embodiment 80, Isopropyl 5′-chloro-2′-oxo-1′-((1-(4,4,4-trifluorobutyl)-4,5,6,7-tetrahydro-1H-benzo[d]imidazol-2-yl)methyl)spiro[azetidine-3,3′-indoline]-1-carboxylate] displayed an EC50 in series [1] of less than 100 nM. In addition, in series [2], the CC50 at 5 days is more than 100000 nM. In series [1], `O=C1N(Cc2nc3c(n2CCCCO)CCCC3)c2ccccc2C12CC2` [Embodiment 63, 1′-((1-(4-Hydroxybutyl)-4,5,6,7-tetrahydro-1H-benzo[d]imidazol-2-yl)methyl)spiro[cyclopropane-1,3′-indoline]-2′-one] displayed an EC50 of less than 100 nM. Further, the CC50 at 5 days in series [2] was more than 100000 nM.

For the molecule `CC(C)OC(=O)N1CC2(C1)C(=O)N(Cc1nc3c(n1CCCC(F)(F)F)C(=O)CCC3)c1ccccc12` [Embodiment 108, Isopropyl 2′-oxo-1′-((7-oxo-1-(4,4,4-trifluorobutyl)-4,5,6,7-tetrahydro-1H-benzo[d]imidazol-2-yl)methyl)spiro[azetidine-3,3′-indoline]-1-carboxylate], in series [1], the EC50 was 100 to 1000 nM. In series [2], this molecule came in with a CC50 at 5 days of more than 100000 nM. For `O=C1N(Cc2nc3c(n2CCCC(F)(F)F)CCCC3)c2ccccc2C12CN(S(=O)(=O)C1CC1)C2` [Embodiment 98, 1-(Cyclopropylsulfonyl)-1′-((1-(4,4,4-trifluorobutyl)-4,5,6,7-tetrahydro-1H-benzo[d]imidazol-2-yl)methyl)spiro[azetidine-3,3′-indoline]-2′-one] the same measures were less than 100 nM and more than 100000 nM. For `CC(C)C(=O)N1CC2(C1)C(=O)N(Cc1nc3c(n1CCCC(F)(F)F)CCCC3)c1ccccc12` [Embodiment 95, 1-Isobutyryl-1′-((1-(4,4,4-trifluorobutyl)-4,5,6,7-tetrahydro-1H-benzo[d]imidazol-2-yl)methyl)spiro[azetidine-3,3′-indoline]-2′-one] the same measures were less than 100 nM and more than 100000 nM. As to `CC(C)C(=O)N1CC2(C1)C(=O)N(Cc1nc3c(n1CCCC(F)(F)F)CCC3)c1ccccc12` [Embodiment 105, 1-Isobutyryl-1′-((1-(4,4,4-trifluorobutyl)-1,4,5,6-tetrahydrocyclopenta[d]imidazol-2-yl)methyl)spiro[azetidine-3,3′-indoline]-2′-one], in series [1], the EC50 was less than 100 nM. Besides, the CC50 at 5 days in series [2] is more than 100000 nM. Consider `O=C(C1CC1)N1CC2(C1)C(=O)N(Cc1nc3c(n1CCCC(F)(F)F)CCCC3)c1cc(F)ccc12` [Embodiment 84, 1-(Cyclopropanecarbonyl)-6′-fluoro-1′-((1-(4,4,4-trifluorobutyl)-4,5,6,7-tetrahydro-1H-benzo[d]imidazol-2-yl)methyl)spiro[azetidine-3,3′-indoline]-2′-one], for which the EC50 in series [1] was less than 100 nM. Also, in series [2], the CC50 at 5 days was more than 100000 nM.

In series [1], `CC(C)OC(=O)N1CC2(C1)C(=O)N(Cc1nc3c(n1CCCC(F)F)CCCC3)c1ccccc12` [Embodiment 64, Isopropyl 1′-((1-(4,4-difluorobutyl)-4,5,6,7-tetrahydro-1H-benzo[d]imidazol-2-yl)methyl)-2′-oxospiro[azetidine-3,3′-indoline]-1-carboxylate] showed an EC50 of less than 100 nM. The molecule further gave a CC50 at 5 days in series [2] of more than 100000 nM. In series [2], `CCOC(=O)N1CC2(C1)C(=O)N(Cc1nc(CC)c(CC)n1CCCCO)c1ccccc12` [Embodiment 101, Ethyl 1′-((4,5-diethyl-1-(4-hydroxybutyl)-1H-imidazol-2-yl)methyl)-2′-oxospiro[azetidine-3,3′-indoline]-1-carboxylate] registered a CC50 at 5 days of more than 100000 nM.

The values above are taken from US9850251B2, “Imidazole derivative used as antiviral agent and use therof in preparation of medicament” (priority 2013, dated 2017).
